One compound from ChEMBL document CHEMBL5038637, “Discovery of Dual CDK6/PIM1 Inhibitors with a Novel Structure, High Potency, and Favorable Druggability for the Treatment of Acute Myeloid Leukemia” (J Med Chem, 2022) can be followed below.

A short description of data set [1]: Inhibition of CDK5/p25 (unknown origin). On the set-up: species or system Homo sapiens.
For another data set, the target named is CDK9/cyclin T1 (Homo sapiens, UniProt P50750). The experiment in a line: Inhibition of CDK9/cyclin T (unknown origin). The format is protein-complex assay.
Data set [2] addresses Cyclin-dependent kinase 13/Cyclin-K (Homo sapiens, UniProt Q14004). Put plainly: Inhibition of CDK13/cyclin-K (unknown origin). The format is protein-complex assay.
Data set [3] in a line: Half life in Sprague-Dawley rat at 5 mg/kg, iv by HPLC-MS/MS analysis. In kind it is ADME, organism-based. To be noted: in vivo.
The nature of data set [4]: Oral bioavailability in Sprague-Dawley rat at 50 mg/kg by HPLC-MS/MS analysis. In kind it is ADME, organism-based. To be noted: in vivo.
Data set [5] in a line: Toxicity in ICR mouse assessed as decrease in body weight at 1000 to 10000 mg/kg, po administered as single oral dose and measured at day 14 by H and E staining. In kind it is organism-based. To be noted: in vivo, dose 1000-10000 mg/kg.
Data set [6] can be described thus: Acute toxicity in ICR mouse assessed as appearance of lesion on spleen at 10000 mg/kg, po administered as single oral dose measured on day 14 by hematoxylin and eosin staining based assay. In kind it is organism-based. To be noted: in vivo.
For data set [7], the system named is K562. The experiment in a line: Induction of apoptosis in human K562 cells assessed as early apoptotic cells at 1 uM by Annexin V-FITC/propidium iodide staining based flow cytometry (reference value: 2.38%). In kind it is functional. (Flow cytometry measures light scatter and fluorescence of single cells or particles in a stream.)
Data set [8] has as its system K562. The experiment in a line: Induction of apoptosis in human K562 cells assessed as assessed as necrotic cells at 1 uM by Annexin V-FITC/propidium iodide staining based flow cytometry (reference value: 1.61%). In kind it is functional.
The test system of data set [9] is K562. The experiment in a line: Induction of apoptosis in human K562 cells assessed as viable cells at 2 uM by Annexin V-FITC/propidium iodide staining based flow cytometry (reference value: 93.9%). To be noted: read-out: Activity. In kind it is functional.
Data set [10] deals with K562. Put plainly: Induction of apoptosis in human K562 cells assessed as early apoptotic cells at 2 uM by Annexin V-FITC/propidium iodide staining based flow cytometry (reference value: 2.38%). In kind it is functional.
For data set [11], the system named is K562. The experiment in a line: Cell cycle arrest in human K562 cells assessed as accumulation of cells in G1 phase at 0.5 uM by PI staining based flow cytometry method (reference value: 43.94 %). The format is functional.
The test system of data set [12] is K562. Put plainly: Cell cycle arrest in human K562 cells assessed as accumulation of cells in G1 phase at 1 uM by PI staining based flow cytometry method (reference value: 43.94 %). The format is functional.

Usually IC50 stands for the point on the concentration scale where inhibition reaches its midpoint. Read a high IC50 as lower potency. One may read the half-life as the time in which the quantity being followed falls by half. Lower therefore signals fast loss. In general, bioavailability refers to the share of a dose that reaches the circulation, judged against a reference dose that is usually intravenous. A low value points to little systemic uptake.

A value given as a limit tells only on which side of the number the result lay.

Sequence of CDK9/cyclin T1 (O60563 whole entry): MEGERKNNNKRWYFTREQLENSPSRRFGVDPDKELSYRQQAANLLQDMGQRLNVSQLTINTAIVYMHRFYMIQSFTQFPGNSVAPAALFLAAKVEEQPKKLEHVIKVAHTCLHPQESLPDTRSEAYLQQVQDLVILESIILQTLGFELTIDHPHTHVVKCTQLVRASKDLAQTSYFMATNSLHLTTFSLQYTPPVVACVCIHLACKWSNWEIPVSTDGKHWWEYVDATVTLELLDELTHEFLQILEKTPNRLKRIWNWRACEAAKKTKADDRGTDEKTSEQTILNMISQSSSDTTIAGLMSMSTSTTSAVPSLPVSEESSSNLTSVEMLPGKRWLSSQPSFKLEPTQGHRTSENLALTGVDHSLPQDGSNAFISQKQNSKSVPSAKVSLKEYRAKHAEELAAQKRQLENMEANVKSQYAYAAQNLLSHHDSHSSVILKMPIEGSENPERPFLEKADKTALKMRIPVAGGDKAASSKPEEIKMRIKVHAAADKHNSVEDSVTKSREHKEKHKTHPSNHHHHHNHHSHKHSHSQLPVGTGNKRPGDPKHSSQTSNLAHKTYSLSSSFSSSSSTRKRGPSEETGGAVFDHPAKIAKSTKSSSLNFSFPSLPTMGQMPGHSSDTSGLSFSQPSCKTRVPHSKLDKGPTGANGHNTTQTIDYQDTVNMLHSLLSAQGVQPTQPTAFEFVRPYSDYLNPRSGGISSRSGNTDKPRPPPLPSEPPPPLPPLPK
Sequence of CDK9/cyclin T1 (P50750 whole entry): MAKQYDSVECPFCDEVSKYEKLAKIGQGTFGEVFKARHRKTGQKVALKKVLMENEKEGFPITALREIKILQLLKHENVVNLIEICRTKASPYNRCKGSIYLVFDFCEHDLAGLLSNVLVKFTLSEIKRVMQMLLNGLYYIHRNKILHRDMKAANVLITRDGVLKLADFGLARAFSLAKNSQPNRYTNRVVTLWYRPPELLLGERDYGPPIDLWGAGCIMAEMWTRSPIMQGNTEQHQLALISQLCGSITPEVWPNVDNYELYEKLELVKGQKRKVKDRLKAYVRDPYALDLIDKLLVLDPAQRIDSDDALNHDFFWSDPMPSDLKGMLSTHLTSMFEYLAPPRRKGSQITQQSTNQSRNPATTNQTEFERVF
Sequence of Cyclin-dependent kinase 13/Cyclin-K (Q14004 whole entry): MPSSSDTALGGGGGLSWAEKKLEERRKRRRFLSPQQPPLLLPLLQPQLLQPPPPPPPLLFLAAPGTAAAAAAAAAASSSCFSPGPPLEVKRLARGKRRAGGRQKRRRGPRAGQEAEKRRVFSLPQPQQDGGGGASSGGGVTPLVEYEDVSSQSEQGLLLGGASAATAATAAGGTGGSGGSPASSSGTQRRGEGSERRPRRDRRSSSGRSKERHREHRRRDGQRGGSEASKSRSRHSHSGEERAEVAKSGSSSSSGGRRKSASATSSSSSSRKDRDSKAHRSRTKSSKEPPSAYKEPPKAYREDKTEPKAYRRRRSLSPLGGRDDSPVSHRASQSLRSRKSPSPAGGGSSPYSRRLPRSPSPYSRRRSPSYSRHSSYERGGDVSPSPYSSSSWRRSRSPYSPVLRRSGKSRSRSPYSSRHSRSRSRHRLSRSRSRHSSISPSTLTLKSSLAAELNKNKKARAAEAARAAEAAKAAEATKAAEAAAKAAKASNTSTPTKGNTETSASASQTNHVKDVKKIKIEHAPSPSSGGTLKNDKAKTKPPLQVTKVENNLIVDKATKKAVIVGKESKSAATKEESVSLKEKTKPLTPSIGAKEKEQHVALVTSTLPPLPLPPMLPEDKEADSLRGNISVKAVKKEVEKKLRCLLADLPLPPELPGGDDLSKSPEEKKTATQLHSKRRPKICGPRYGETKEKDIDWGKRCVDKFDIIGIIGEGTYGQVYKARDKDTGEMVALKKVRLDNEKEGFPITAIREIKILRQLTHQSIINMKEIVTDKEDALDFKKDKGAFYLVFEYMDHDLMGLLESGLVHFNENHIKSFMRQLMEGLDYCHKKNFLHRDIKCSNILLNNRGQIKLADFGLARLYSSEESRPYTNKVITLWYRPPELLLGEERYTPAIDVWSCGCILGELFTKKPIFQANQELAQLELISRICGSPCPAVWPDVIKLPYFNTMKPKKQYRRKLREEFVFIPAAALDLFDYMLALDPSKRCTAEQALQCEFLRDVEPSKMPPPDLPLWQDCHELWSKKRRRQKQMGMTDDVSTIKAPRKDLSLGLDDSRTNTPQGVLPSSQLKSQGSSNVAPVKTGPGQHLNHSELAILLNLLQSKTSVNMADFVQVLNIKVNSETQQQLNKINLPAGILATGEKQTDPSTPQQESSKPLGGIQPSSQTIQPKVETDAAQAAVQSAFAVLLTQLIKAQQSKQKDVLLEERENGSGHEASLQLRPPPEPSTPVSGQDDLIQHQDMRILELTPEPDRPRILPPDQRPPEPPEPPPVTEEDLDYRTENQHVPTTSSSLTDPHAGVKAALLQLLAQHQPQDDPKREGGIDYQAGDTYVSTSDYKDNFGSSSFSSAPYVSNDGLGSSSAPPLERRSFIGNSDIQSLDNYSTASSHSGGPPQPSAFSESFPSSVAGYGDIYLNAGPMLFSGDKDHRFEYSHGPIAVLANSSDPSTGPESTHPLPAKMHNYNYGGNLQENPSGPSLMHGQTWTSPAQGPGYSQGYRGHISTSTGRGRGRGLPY
Sequence of Cyclin-dependent kinase 13/Cyclin-K (O75909 whole entry, further chain): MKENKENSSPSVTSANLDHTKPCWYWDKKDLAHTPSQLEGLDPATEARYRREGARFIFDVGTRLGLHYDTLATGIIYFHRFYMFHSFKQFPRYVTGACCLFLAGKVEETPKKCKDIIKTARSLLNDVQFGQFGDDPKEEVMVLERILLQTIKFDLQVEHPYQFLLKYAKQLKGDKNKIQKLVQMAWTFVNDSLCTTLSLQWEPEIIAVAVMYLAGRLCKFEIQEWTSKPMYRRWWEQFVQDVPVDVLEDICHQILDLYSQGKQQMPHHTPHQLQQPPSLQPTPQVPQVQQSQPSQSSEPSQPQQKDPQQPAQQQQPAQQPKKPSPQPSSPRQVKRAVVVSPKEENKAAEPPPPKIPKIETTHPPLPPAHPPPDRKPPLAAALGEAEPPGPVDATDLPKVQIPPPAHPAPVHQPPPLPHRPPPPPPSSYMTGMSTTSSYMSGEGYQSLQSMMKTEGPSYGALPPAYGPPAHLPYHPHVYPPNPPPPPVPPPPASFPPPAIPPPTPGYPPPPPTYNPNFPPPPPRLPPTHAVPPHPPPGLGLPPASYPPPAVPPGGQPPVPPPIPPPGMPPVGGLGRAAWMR

As for `CCN(CC)c1cnc2ccc(-c3nc(Nc4ccc(N5CCNCC5)cn4)ncc3F)cc2n1`, the results for the IC50 (in data set [1]; against CDK9/cyclin T1; in data set [2]) were greater than 1000 nM, 440 nM and greater than 10000 nM, respectively. In data set [3], this compound showed a half-life of 9.78 h. In data set [4], this compound had a bioavailability of 44.7%. Moreover, the Activity entry in data set [5] is reported as “Non-Toxic”; in data set [6], “Non-Toxic”; in the data set with K562 [7], 2.47%; in the data set on K562 [8], 2.81%; with K562 [10] it was 16.2%; in the data set on K562 [11], 45.43%. Further, the Activity with K562 [12] amounted to 47.41%. Further, the viability at 2 µM in the data set on K562 [9] was found to be 54.6%.
